From ChEMBL document CHEMBL4725292 (J Med Chem, 2020)
pIC50, pKd: −log10 of the molar value. Active and inactive are the calls of the source. The calls are words filed in the database; no cut-off is given here.

How the values were obtained:
B cell [1] = assay: Downregulation of IL-2 secretion in human B cells cocultured with human PBMC at 0.37 to 10 uM preincubated for 1 hr followed by anti-IgM and TCR stimulation and measured after 84 hrs by ELISA; type: functional, cell-based; details: dose microM 0.37-10, time 1.0 hrs
[2] = molecular target: Transcription initiation factor TFIID subunit 1 (Homo sapiens, UniProt P21675); assay: Binding affinity to full length TAF1 in human HuT78 cell lysates incubated for 45 mins by liquid chromatography-mass spectrometry based chemoproteomic binding assay; type: subcellular
Sequence of Transcription initiation factor TFIID subunit 1 (P21675 whole entry, the tested form may be a part): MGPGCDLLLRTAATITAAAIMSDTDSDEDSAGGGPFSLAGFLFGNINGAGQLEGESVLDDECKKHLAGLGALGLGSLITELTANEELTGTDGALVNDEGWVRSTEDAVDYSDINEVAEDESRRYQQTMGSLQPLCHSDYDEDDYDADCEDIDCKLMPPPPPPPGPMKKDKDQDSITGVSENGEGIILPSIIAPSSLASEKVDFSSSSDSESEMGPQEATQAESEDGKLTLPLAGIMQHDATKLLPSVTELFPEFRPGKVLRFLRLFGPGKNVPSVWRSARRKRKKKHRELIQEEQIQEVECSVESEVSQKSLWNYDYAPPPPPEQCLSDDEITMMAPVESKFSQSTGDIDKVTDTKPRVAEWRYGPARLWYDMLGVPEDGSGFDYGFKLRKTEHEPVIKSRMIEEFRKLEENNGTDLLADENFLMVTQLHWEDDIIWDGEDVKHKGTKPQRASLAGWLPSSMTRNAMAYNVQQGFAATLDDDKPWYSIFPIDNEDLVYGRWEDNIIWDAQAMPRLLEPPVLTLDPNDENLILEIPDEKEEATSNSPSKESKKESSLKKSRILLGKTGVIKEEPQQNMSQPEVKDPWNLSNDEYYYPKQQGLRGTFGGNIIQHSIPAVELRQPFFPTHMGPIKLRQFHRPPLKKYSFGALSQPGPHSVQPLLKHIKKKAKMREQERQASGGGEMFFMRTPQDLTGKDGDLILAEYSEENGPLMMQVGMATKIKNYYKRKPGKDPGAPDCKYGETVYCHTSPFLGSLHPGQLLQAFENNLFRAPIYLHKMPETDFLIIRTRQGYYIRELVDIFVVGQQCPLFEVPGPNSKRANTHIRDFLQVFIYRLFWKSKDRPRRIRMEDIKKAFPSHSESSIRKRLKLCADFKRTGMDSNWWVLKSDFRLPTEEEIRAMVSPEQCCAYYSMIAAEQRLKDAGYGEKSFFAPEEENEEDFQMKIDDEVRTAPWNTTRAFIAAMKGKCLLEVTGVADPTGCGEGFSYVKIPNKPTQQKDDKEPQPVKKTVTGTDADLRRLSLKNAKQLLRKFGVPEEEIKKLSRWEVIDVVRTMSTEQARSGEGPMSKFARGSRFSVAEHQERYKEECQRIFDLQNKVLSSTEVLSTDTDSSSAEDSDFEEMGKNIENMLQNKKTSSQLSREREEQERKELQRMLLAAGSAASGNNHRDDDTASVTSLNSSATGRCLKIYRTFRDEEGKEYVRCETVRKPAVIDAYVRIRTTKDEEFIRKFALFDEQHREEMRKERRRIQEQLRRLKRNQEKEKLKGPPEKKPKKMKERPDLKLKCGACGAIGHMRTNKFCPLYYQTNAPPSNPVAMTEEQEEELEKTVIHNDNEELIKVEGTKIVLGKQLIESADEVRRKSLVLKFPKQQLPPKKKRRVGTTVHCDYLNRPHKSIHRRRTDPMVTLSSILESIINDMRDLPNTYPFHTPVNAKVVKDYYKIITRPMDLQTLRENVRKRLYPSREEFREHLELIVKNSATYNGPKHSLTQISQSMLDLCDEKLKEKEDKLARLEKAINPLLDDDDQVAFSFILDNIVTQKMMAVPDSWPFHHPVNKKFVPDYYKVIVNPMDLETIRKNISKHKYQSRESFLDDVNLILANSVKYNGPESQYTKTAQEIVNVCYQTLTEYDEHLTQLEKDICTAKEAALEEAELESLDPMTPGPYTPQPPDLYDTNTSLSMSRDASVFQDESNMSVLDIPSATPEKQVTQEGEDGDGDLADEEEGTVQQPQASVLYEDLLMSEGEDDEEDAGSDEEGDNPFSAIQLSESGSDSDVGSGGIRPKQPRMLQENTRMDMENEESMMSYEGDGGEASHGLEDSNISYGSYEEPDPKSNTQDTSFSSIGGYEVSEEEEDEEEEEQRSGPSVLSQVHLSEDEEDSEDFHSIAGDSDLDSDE

[3] = molecular target: T1, Bromodomain-containing protein 3 (Homo sapiens, UniProt Q15059); assay: Binding affinity to human partial length BRD3 bromodomain 1 (P24 to E144 residues) expressed in bacterial expression system by BROMOscan assay
T1 sequence (Q15059 whole entry, the tested form may be a part): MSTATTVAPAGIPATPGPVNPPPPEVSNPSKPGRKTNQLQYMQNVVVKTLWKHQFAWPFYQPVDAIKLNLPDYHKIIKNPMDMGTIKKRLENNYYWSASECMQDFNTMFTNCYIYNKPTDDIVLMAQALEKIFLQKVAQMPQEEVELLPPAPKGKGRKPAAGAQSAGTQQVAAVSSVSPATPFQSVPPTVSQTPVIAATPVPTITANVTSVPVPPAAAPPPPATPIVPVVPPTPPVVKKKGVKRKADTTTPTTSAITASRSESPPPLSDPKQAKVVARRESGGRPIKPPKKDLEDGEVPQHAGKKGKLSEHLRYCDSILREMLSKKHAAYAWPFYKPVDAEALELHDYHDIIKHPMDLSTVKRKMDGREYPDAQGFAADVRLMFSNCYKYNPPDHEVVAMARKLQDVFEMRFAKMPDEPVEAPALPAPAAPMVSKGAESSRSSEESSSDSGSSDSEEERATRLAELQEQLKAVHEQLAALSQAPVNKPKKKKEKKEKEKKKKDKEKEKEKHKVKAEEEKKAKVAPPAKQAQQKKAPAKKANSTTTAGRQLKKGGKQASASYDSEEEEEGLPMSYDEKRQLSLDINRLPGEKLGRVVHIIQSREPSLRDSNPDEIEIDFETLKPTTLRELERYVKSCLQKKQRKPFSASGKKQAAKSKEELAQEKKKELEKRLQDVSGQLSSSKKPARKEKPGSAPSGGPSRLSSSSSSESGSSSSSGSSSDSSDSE

[4] = molecular target: T2, Bromodomain testis-specific protein (Homo sapiens, UniProt Q58F21); assay: Binding affinity to full length BRDT BD1 in human HuT78 cell lysates incubated for 45 mins by liquid chromatography-mass spectrometry based chemoproteomic binding assay; type: subcellular
[5] = Lipophilicity, logD of the compound at pH 7.4 by chromatographic method; type: physicochemical; details: buffer
[6] = molecular target: T1, Bromodomain-containing protein 3; assay: Binding affinity to full length BRD3 BD2 in human HuT78 cell lysates incubated for 45 mins by liquid chromatography-mass spectrometry based chemoproteomic binding assay; type: subcellular
[7] = molecular target: T3, ATPase family AAA domain-containing protein 2B (Homo sapiens, UniProt Q9ULI0); assay: Binding affinity to human partial length ATAD2B (Q955 to R1082 residues) expressed in bacterial expression system by BROMOscan assay
T3 sequence (Q9ULI0 whole entry): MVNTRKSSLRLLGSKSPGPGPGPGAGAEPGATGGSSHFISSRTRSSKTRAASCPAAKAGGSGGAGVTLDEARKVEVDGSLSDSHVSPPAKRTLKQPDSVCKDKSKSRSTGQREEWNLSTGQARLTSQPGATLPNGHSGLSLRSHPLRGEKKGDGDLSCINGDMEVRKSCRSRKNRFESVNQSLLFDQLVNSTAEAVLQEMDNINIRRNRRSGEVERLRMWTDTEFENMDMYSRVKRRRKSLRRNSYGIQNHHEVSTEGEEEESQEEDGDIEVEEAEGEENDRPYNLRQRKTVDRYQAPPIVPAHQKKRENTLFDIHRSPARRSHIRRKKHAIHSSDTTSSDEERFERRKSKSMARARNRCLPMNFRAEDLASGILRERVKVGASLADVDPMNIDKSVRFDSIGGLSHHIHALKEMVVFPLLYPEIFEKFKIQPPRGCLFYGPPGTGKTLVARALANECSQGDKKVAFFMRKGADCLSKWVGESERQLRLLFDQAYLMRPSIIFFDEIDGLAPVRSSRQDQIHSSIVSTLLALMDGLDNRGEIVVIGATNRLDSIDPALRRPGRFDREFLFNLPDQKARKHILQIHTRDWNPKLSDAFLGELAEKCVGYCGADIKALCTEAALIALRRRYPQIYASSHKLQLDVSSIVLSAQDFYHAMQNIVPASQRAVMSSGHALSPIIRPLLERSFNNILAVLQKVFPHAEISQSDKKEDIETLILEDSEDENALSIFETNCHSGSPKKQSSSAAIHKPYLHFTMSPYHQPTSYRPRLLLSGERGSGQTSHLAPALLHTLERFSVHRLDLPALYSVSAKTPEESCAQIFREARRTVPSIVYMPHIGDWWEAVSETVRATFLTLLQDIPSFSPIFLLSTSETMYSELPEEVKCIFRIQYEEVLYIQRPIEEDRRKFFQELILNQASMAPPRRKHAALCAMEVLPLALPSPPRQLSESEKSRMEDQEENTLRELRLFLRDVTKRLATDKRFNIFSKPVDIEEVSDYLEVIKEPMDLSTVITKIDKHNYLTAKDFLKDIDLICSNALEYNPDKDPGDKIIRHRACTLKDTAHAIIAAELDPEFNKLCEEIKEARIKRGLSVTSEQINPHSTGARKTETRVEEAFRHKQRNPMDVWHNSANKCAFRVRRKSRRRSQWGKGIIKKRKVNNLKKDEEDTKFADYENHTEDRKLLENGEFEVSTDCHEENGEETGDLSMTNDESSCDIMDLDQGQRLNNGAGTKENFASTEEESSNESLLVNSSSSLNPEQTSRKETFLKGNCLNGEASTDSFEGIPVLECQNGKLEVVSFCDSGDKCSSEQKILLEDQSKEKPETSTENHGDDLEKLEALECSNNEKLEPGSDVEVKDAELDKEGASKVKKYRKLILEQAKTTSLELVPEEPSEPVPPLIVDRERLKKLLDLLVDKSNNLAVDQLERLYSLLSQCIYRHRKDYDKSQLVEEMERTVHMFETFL

[8] = molecular target: Transcription initiation factor TFIID subunit 1-like (Homo sapiens, UniProt Q8IZX4); assay: Binding affinity to human partial length TAF1L bromodomain 2 (Q1523 to D1654 residues) expressed in bacterial expression system by BROMOscan assay
Blood [9] = assay: Inhibition of LPS-induced MCP1 production in human whole blood preincubated for 30 mins followed by LPS addition and measured after overnight incubation by mesoscale assay; type: functional, tissue-based
[10] = molecular target: T2, Bromodomain testis-specific protein; assay: Binding affinity to full length BRDT BD2 in human HuT78 cell lysates incubated for 45 mins by liquid chromatography-mass spectrometry based chemoproteomic binding assay; type: subcellular
[11] = Intrinsic clearance in rat hepatocytes at 0.5 uM measured up to 60 mins by LC-MS/MS analysis; type: ADME, cell-based, Hepatocyte; details: 1 h
[12] = molecular target: T4, Bromodomain-containing protein 2 (Homo sapiens, UniProt P25440); assay: Binding affinity to full length BRD2 BD1 in human HuT78 cell lysates incubated for 45 mins by liquid chromatography-mass spectrometry based chemoproteomic binding assay; type: subcellular
T4 sequence (P25440 whole entry): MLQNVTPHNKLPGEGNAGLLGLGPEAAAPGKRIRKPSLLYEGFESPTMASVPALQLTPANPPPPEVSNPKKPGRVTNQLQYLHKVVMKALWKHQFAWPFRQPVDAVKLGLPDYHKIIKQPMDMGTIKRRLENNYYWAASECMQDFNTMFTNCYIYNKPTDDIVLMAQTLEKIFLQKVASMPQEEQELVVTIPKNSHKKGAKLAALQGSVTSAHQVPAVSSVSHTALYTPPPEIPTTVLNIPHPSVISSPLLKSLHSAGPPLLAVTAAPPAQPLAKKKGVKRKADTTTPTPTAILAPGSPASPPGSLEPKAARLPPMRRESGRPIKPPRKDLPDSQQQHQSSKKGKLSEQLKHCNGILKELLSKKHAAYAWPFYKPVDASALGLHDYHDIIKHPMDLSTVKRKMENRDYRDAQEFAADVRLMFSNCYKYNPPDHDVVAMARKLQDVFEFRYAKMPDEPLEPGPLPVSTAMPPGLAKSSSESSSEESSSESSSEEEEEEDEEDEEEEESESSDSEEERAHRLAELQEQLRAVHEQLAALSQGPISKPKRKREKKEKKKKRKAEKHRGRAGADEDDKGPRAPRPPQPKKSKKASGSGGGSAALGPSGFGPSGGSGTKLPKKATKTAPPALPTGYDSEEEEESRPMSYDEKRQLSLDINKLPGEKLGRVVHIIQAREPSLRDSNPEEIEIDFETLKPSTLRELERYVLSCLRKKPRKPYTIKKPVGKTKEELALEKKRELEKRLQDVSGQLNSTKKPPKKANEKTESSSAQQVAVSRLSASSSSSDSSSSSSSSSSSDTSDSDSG

Blood [13] = assay: Inhibition of LPS-induced TNFalpha production in human whole blood preincubated for 30 mins followed by LPS addition and measured after overnight incubation by mesoscale assay; type: functional, tissue-based
[14] = molecular target: T2, Bromodomain testis-specific protein; assay: Binding affinity to human partial length BRDT bromodomain 1 (N21 to E137 residues) expressed in bacterial expression system by bromoscan assay
B cell [15] = assay: Downregulation of IL-6 secretion in human B cells cocultured with human PBMC at 0.37 to 10 uM preincubated for 1 hr followed by anti-IgM and TCR stimulation and measured after 84 hrs by ELISA; type: functional, cell-based; details: dose microM 0.37-10, time 1.0 hrs
[16] = molecular target: T1, Bromodomain-containing protein 3; assay: Binding affinity to human partial length BRD3 bromodomain 2 (G306 to P416 residues) expressed in bacterial expression system by BROMOscan assay
Blood [17] = assay: Inhibition of LPS-induced IL6 production in human whole blood preincubated for 30 mins followed by LPS addition and measured after overnight incubation by mesoscale assay; type: functional, tissue-based
B cell [18] = assay: Downregulation of IL-17A secretion in human B cells cocultured with human PBMC at 0.37 to 10 uM preincubated for 1 hr followed by anti-IgM and TCR stimulation and measured after 84 hrs by ELISA; type: functional, cell-based; details: dose microM 0.37-10, time 1.0 hrs
B cell [19] = assay: Downregulation of Ig-G secretion in human B cells cocultured with human PBMC at 0.37 to 10 uM preincubated for 1 hr followed by anti-IgM and TCR stimulation and measured after 84 hrs by ELISA; type: functional, cell-based; details: dose microM 0.37-10, time 1.0 hrs
[20] = molecular target: T4, Bromodomain-containing protein 2; assay: Binding affinity to full length BRD2 BD2 in human HuT78 cell lysates incubated for 45 mins by liquid chromatography-mass spectrometry based chemoproteomic binding assay; type: subcellular

pIC50 [2]: < 5.00 | pKd [3]: 7.80 | pKd [4]: 8.00 | chromatographic logD [5]: 3.99 | pKd [6]: 5.20 | pKd [7]: 4.80 | pKd [8]: 6.40 | pIC50 (Blood [9]): 6.17 | pKd [10]: < 4.50 | CLH [11]: 14.88 mL/min/g | pKd [12]: 8.40 | pIC50 (Blood [13]): 6.06 | pKd [14]: 7.70 | pKd [16]: 4.70 | pIC50 (Blood [17]): 5.45 | pKd [20]: < 4.60
SMILES: Cc1cc2c(-c3ccco3)cnc(N[C@@H]3CCN(C)C[C@H]3C(=O)NC3CCCCC3)c2[nH]c1=O [GSK789]
Activity (B cell [1]): Active | Activity (B cell [15]): Active | Activity (B cell [18]): Active | Activity (B cell [19]): Active
